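Values below derive from 48-hour exposures of cells grown in 96-well plates, with endpoints linearly interpolated between the two concentrations bracketing the appropriate inhibition level. GI50: concentration for 50% inhibition of growth. The concentration for full growth arrest is given as TGI.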
Legend:
Test in all cases: NCI tumour cell line growth inhibition, 48 h
DU-145 prostate = tested on: DU-145 prostate
HCT-15 colon = tested on: HCT-15 colon
UACC-257 melanoma = tested on: UACC-257 melanoma
SNB-75 CNS = tested on: SNB-75 CNS
HCC-2998 colon = tested on: HCC-2998 colon
M14 melanoma = tested on: M14 melanoma
HS 578T breast = tested on: HS 578T breast
PC-3 prostate = tested on: PC-3 prostate
COLO 205 colon = tested on: COLO 205 colon
CCRF-CEM leukemia = tested on: CCRF-CEM leukemia
SF-268 CNS = tested on: SF-268 CNS
SW-620 colon = tested on: SW-620 colon
MDA-MB-231 breast = tested on: MDA-MB-231 breast
OVCAR-8 ovarian = tested on: OVCAR-8 ovarian
U251 CNS = tested on: U251 CNS
SK-MEL-28 melanoma = tested on: SK-MEL-28 melanoma
RPMI-8226 leukemia = tested on: RPMI-8226 leukemia
T-47D breast = tested on: T-47D breast
RXF 393 renal = tested on: RXF 393 renal
SK-MEL-5 melanoma = tested on: SK-MEL-5 melanoma
KM12 colon = tested on: KM12 colon
OVCAR-4 ovarian = tested on: OVCAR-4 ovarian
786-0 renal = tested on: 786-0 renal
ACHN renal = tested on: ACHN renal
MOLT-4 leukemia = tested on: MOLT-4 leukemia
UACC-62 melanoma = tested on: UACC-62 melanoma
SK-MEL-2 melanoma = tested on: SK-MEL-2 melanoma
SF-295 CNS = tested on: SF-295 CNS
HL-60(TB) leukemia = tested on: HL-60(TB) leukemia
OVCAR-3 ovarian = tested on: OVCAR-3 ovarian

CN(CCO)c1oc(-c2ccccc2)nc1[P+](c1ccccc1)(c1ccccc1)c1ccccc1
GI50 (DU-145 prostate): 3.26 µM | TGI (DU-145 prostate): 13.7 µM | GI50 (HCT-15 colon): 13.5 µM | TGI (HCT-15 colon): 31.2 µM | GI50 (UACC-257 melanoma): 1.95 µM | TGI (UACC-257 melanoma): 9.63 µM | GI50 (SNB-75 CNS): 1.28 µM | TGI (SNB-75 CNS): 5.89 µM | GI50 (HCC-2998 colon): 1.82 µM | TGI (HCC-2998 colon): 12.4 µM | GI50 (M14 melanoma): 2.81 µM | TGI (M14 melanoma): 12.4 µM | GI50 (HS 578T breast): 2.39 µM | TGI (HS 578T breast): 9.08 µM | GI50 (PC-3 prostate): 1.75 µM | TGI (PC-3 prostate): 10.4 µM | GI50 (COLO 205 colon): 1.46 µM | TGI (COLO 205 colon): 3.28 µM | GI50 (CCRF-CEM leukemia): 2.39 µM | TGI (CCRF-CEM leukemia): 12.2 µM | GI50 (SF-268 CNS): 3.27 µM | TGI (SF-268 CNS): 14 µM | GI50 (SW-620 colon): 2.9 µM | TGI (SW-620 colon): 23.1 µM | GI50 (MDA-MB-231 breast): 1.36 µM | TGI (MDA-MB-231 breast): 4.18 µM | GI50 (OVCAR-8 ovarian): 3.33 µM | TGI (OVCAR-8 ovarian): 16.3 µM | GI50 (U251 CNS): 2.31 µM | TGI (U251 CNS): 13.6 µM | GI50 (SK-MEL-28 melanoma): 1.54 µM | TGI (SK-MEL-28 melanoma): 12.7 µM | GI50 (RPMI-8226 leukemia): 0.393 µM | TGI (RPMI-8226 leukemia): 4.03 µM | GI50 (T-47D breast): 0.517 µM | TGI (T-47D breast): 11.2 µM | GI50 (RXF 393 renal): 1.94 µM | TGI (RXF 393 renal): 9.64 µM | GI50 (SK-MEL-5 melanoma): 1.15 µM | TGI (SK-MEL-5 melanoma): 2.52 µM | GI50 (KM12 colon): 2.12 µM | TGI (KM12 colon): 10.2 µM | GI50 (OVCAR-4 ovarian): 2.79 µM | TGI (OVCAR-4 ovarian): 27.1 µM | GI50 (786-0 renal): 5.31 µM | TGI (786-0 renal): 20.8 µM | GI50 (ACHN renal): 8.36 µM | TGI (ACHN renal): 41.6 µM | GI50 (MOLT-4 leukemia): 2.77 µM | TGI (MOLT-4 leukemia): 11.8 µM | GI50 (UACC-62 melanoma): 1.23 µM | TGI (UACC-62 melanoma): 5.97 µM | GI50 (SK-MEL-2 melanoma): 1.96 µM | TGI (SK-MEL-2 melanoma): 5.43 µM | GI50 (SF-295 CNS): 2.62 µM | TGI (SF-295 CNS): 9.92 µM | GI50 (HL-60(TB) leukemia): 0.535 µM | TGI (HL-60(TB) leukemia): 2.73 µM | GI50 (OVCAR-3 ovarian): 1.08 µM

Source: PubChem BioAssay (NCI)
